Consider twelve compounds from ChEMBL document CHEMBL3272320, “Antidepressant and anticonvulsant activity of 1-(5-phenyl-4-oxazolin-2-yl)-4-substituted piperazines” (1976).

Calls of active or inactive are those of the source. No cut-off for these calls is given here.

The subject of assay [1] is Mus musculus. The assay can be described thus: Antidepressant activity in mouse at […] after 4 hrs by Dopa potentiation test. In kind it is functional, organism-based.
Assay [2] has as its system Mus musculus. The assay can be described thus: Anticonvulsant activity in mouse assessed as protection against tonic extensor component of audiogenic seizures at 100 mg/kg, po. It is filed as functional.
For assay [3], the system named is Mus musculus. In words: Antidepressant activity in po dosed mouse after 4 hrs by Dopa potentiation test relative to pemoline. It is filed as functional.

Take `O=C1N=C(N2CCN(C(=O)Nc3ccc(Cl)cc3)CC2)OC1c1ccccc1` (configuration not stated): the result with Mus musculus [1] was Active. Moreover, the Activity in the assay on Mus musculus [2] came to 50%.

In the case of `NC1=NC(=O)C(c2ccccc2)O1` (configuration not stated) [PEMOLINE], the result in the assay with Mus musculus [1] was Active. Also, in the assay with Mus musculus [2], the Activity worked out at 90%.

For `COc1cc(/C=C/C(=O)N2CCN(C3=NC(=O)C(c4ccccc4)O3)CC2)cc(OC)c1OC` (configuration not stated), the result in the assay on Mus musculus [1] was Active. For the same compound, the “fold change (FC)” value in the assay on Mus musculus [3] came to 2.5.

Take `CCN(CC)C(=O)N1CCN(C2=NC(=O)C(c3ccccc3)O2)CC1` (configuration not stated): the outcome with Mus musculus [1] was Active. Besides, the Activity in the assay on Mus musculus [2] came to 60%. For `O=C1N=C(N2CCN(C(=O)/C=C/c3ccc(F)cc3)CC2)OC1c1ccccc1` (configuration not stated), the result with Mus musculus [1] was Active. In the assay with Mus musculus [3], the “fold change (FC)” value came to 2. As to `COc1ccc(/C=C/C(=O)N2CCN(C3=NC(=O)C(c4ccccc4)O3)CC2)cc1` (configuration not stated), the result in the assay on Mus musculus [1] was Active. In the case of `NC(=O)N1CCN(C2=NC(=O)C(c3ccccc3)O2)CC1` (configuration not stated), the result in the assay with Mus musculus [1] was Active. The Activity in the assay with Mus musculus [2] is 10%.

For `CNC(=O)N1CCN(C2=NC(=O)C(c3ccccc3)O2)CC1` (configuration not stated), the result in the assay with Mus musculus [1] was Active. The Activity with Mus musculus [2] stood at 50%.

With `O=C1N=C(N2CCN(C(=O)Nc3ccccc3)CC2)OC1c1ccccc1` (configuration not stated), the outcome with Mus musculus [1] was Active. In the assay with Mus musculus [2], the Activity came to 50%.

Regarding `COc1ccc(NC(=O)N2CCN(C3=NC(=O)C(c4ccccc4)O3)CC2)cc1` (configuration not stated), the outcome with Mus musculus [1] was Active. Also, in the assay with Mus musculus [2], the Activity is 20%. With `COc1cc(/C=C/C(=O)N2CCN(C3=NC(=O)C(c4ccccc4)O3)CC2)cc(Br)c1OC` (configuration not stated), the outcome with Mus musculus [1] was Active. In addition, the “fold change (FC)” value in the assay on Mus musculus [3] worked out at 3. Regarding `COc1cc(/C(C)=C/C(=O)N2CCN(C3=NC(=O)C(c4ccccc4)O3)CC2)cc(OC)c1OC` (configuration not stated), the outcome with Mus musculus [1] was Active.
